Consider four compounds from patent US7741337B2, “Azonafide derivatives, methods for their production and pharmaceutical compositions therefrom” (Unibioscreen S.A., priority 2005, dated 2010).

Data set [1] deals with U-373 MG, PC-3 and/or A549 cancer cells. The data set is described as follows: Effect on cell migration, summary of table 3. The format is cell-based, human. The note with it: for migration level of cancer cells: U-373 MG, PC-3 and/or A549 cancer cells at the non-cytotoxic concentrations of this study.
Data set [2] relates to PC3 (prostate cancer) cells. The data set can be described thus: Effect on cell migration, PC3. The format is cell-based. To be noted: Homo sapiens, 22 hours on the 25% of most motile cells, at 10^−8 M, p value in same cell, read-out: Maximum effects (cell migration). On the procedure: Cells of different cancer lines, i.e. U-373 MG (Glioma cancer), PC3 (prostate cancer and A549 (Lung cancer) were seeded on culture flask 48 hours before the migration experiment. On the test day, cells were treated with or without the azonafide derivatives mentioned in table 3 in closed Falcon dishes containing a buffered medium at a controlled temperature (37.0±0.1° C.) for 12 or 22 hours, as noted in the right column of table 3. The azonafide derivatives were used at three non-cytotoxic concentrations (10^−6 M, 10^−7, 10^−8 M). Migration of the cells was observed by means of a CCD-camera mounted on a phase-contrast microscope. Statistical analysis of the migration, with the non-parametric Mann-Whitney test, was established for 25% and 50% of the most motile cells and for the entire cell population.

The next data set relates to A549 (Lung cancer) cells. The data set can be described thus: Effect on cell migration, A549. The format is cell-based. To be noted: Homo sapiens, p value in same cell, read-out: Maximum effects (cell migration).
Data set [3] has as its system human cancer cell lines Hs683, U-373MG, HCT-15, LoVo, A549 and MCF-7. The data set can be described thus: MTT test, effect on overall cell growth (mean of six cell lines, examples 3 to 26). It counts as cell-based. The note with it: mean of six cell lines Hs683, U-373MG, A549, MCF-7, 72 hours incubation, range of molar concentrations resulting in 50% inhibition of overall tumor cells growth. On the technique in general: Formazan colour is commonly taken as a measure of viable cells.

The subject of data set [4] is human tumour xenografts with colon, lung and mammary cancers. The note with it: mice with colon; cited from earlier work.
The subject of the next data set is leukemia models. To be noted: mice; cited from earlier work.
For data set [5] the following is noted: patients receiving five daily doses of the drug; cited from earlier work.
Data set [6] concerns primary human solid tumours. To be noted: in vitro; Ajani et al. Invest New Drugs (1988) 6:79-83; cited from earlier work.
For data set [7] the following is noted: compared with amonafide; U.S. Pat. No. 5,635,506; cited from earlier work.
The test system of the next data set is tumors. To be noted: mice; compared with amonafide; U.S. Pat. No. 5,635,506; cited from earlier work.
Data set [8] concerns multidrug resistant tumors. The note with it: in vitro; U.S. Pat. No. 5,635,506; cited from earlier work.
For data set [9], the system named is human Myeloma 8226/DOX 40 cell line. To be noted: U.S. Pat. No. 5,635,506; cited from earlier work.

One may read the melting point as the temperature, or range, at which the solid turns liquid. The IC50 is the midpoint of a concentration-inhibition curve. Low readings indicate higher potency, high ones lower potency. Turning to `CN(C)CCN1C(=O)c2cccc3cc4c(N=Cc5cc(O)ccc5O)cccc4c(c23)C1=O` (stereo in doubt) [Example 6, 8-{[(1Z)-(2,5-dihydroxyphenyl)methylidene]amino}-2-[2-(dimethylamino)ethyl]-1H-dibenzo[de,h]isoquinoline-1,3(2H)-dione], the melting point came to 205 °C. The “migration level of cancer cells” value in data set [1] is “induced a decrease in the migration level”. The “cell migration activity compared with the closest compounds known in the art” value in data set [1] (comparison drawn from table 3) was “significantly greater cell migration activity than the closest compounds known in the art, or similar cell migration activity at significantly lower concentrations”. Besides, the Emax at 0.01 µM in data set [2] was -24%. The Emax at 0.01 µM in the data set on A549 (Lung cancer) cells (22 hours on the 25% of most motile cells, at 10^−8 M) was -29%. For the same compound, the IC50 in [3] lay within 1 to 5 µM.

Consider `CN(C)CCN1C(=O)c2cccc3cc4cccc(/N=C\c5ccc6c(c5)OCO6)c4c(c23)C1=O` [Example 7, 11-{[(1Z)-1,3-benzodioxol-5-ylmethylidene]amino}-2-[2-(dimethylamino)ethyl]-1H-dibenzo[de,h]isoquinoline-1,3(2H)-dione], for which the melting point came to 198 °C. Also, the “migration level of cancer cells” value in [1] was “induced a decrease in the migration level”. The Emax at 1 µM in the data set with A549 (Lung cancer) cells (22 hours on the 100% of cells, at 10^−6 M) is -20%. Further, the IC50 in [3] was > 10 µM.

Regarding `CN(C)CCN1C(=O)c2cccc3cc(N)cc(c23)C1=O` [amonafide], the “activity in human tumour xenografts” value in data set [4] was “no activity”. In addition, the “activity in leukemia models” value in the data set on leukemia models is reported as “only moderate activity”. In addition, the myelotoxicity entry in data set [5] is reported as “substantial myelotoxicity leading to some deaths”. The “activity in primary human solid tumours” value in data set [6] was “poor activity”.

As for `CN(C)CCN1C(=O)c2cccc3cc4ccccc4c(c23)C1=O` [azonafide, 2-[2′-(dimethylamino)ethyl]-1,2-dihydro-3H-dibenz(deh)isoquinoline-1,3-dione], the cardiotoxicity entry in data set [7] is reported as “higher cardiotoxicity than amonafide”. The “appearance of tumors and tumor growth” value in the data set with tumors is “delay the appearance of tumors and to reduce tumor growth in mice with more efficiency than amonafide”. Moreover, the “anti-tumor activity on multidrug resistant tumors” value in [8] is listed as “showed anti-tumor activity”. Besides, in data set [9], the cross resistance entry is “possible three-fold cross resistance”.
